Experimental data published in ChEMBL document CHEMBL1125188, “Synthesis and evaluation of stilbene and dihydrostilbene derivatives as potential anticancer agents that inhibit tubulin polymerization” (J Med Chem, 1991).
pEC50: −log10 of the molar value.

Assays:
MCF7 = assay: Cytotoxic concentration required to inhibit 50% cell growth in MCF-7 breast carcinoma cell lines; type: functional; settings: Homo sapiens, read-out: ED50 (the source's name)
MLM = assay: Cytotoxic concentration required to inhibit 50% cell growth in MLM melanoma cell lines; type: functional; settings: Homo sapiens, read-out: ED50 (the source's name)
HT-29 = assay: Cytotoxic concentration required to inhibit 50% cell growth in HT-29 colon adenocarcinoma cell lines; type: functional; settings: Homo sapiens, read-out: ED50 (the source's name)
SK-MEL-5 = assay: Cytotoxic concentration required to inhibit 50% cell growth in SKMEL-5 melanoma cell lines; type: functional; settings: Homo sapiens, read-out: ED50 (the source's name)
A549 = assay: Cytotoxic concentration required to inhibit 50% cell growth in A-549 lung carcinoma cell lines; type: functional; settings: Homo sapiens, read-out: ED50 (the source's name)
Tubulin = Tubulin (Bos taurus, UniProt Q6B856+Q862L2+Q862F3); assay: Ability to inhibit Tubulin polymerization in Bovine brain; type: functional, tissue-based

Row | Compound | IC50 (Tubulin) [nM] | pEC50 (MCF7) | pEC50 (MLM) | pEC50 (HT-29) | pEC50 (SK-MEL-5) | pEC50 (A549)
1 | COc1cc(/C=C\c2ccc(N(C)C)cc2)cc(OC)c1OC | 3400 | 8.24 | 8.03 | 8.09 | 9.82 | 8.39
2 | COc1ccc(/C=C/c2cc(OC)c(OC)c(OC)c2)cc1 | > 50000 | 5.98 | 5.68 | 5.74 | 6.09 | 5.93
3 | COc1cc(/C=C\c2ccccc2)cc(OC)c1OC | 36000 | 6.60 | < 4.60 | 7.08 | 6.92 | 6.77
4 | COc1cc(/C=C\c2ccc(OC(C)=O)cc2)cc(OC)c1OC | 29000 | 5.52 | 5.20 | 5.22 | 5.22 | 5.77
5 | COc1ccc(NCc2cc(OC)cc(OC)c2)cc1 | 29000 | 5.22 | < 4.60 | 4.75 | 5.62 | 5.24
6 | COc1ccc(/C=C\c2cc(OC)c(OC)c(OC)c2)cc1 | 2200 | – | 10.03 | 10.57 | – | 10.66
7 | COc1cc(/C=C\c2ccc(Br)cc2)cc(OC)c1OC | 3100 | 7.80 | 7.85 | 8.09 | 8.17 | 7.96
8 | COc1cccc(/C=C\c2cc(OC)c(OC)c(OC)c2)c1 | 8800 | 6.85 | 5.85 | 7.05 | 7.22 | 6.89
9 | COc1cc(/C=C/c2ccc(N(C)C)cc2)cc(OC)c1OC | > 50000 | 7.09 | 7.90 | 8.16 | 8.34 | 8.21
10 | COc1ccc(/C=C\c2cc(OC)c(OC)c(OC)c2)c(Cl)c1 | 3500 | 7.34 | 6.85 | 7.18 | 7.77 | 7.29
11 | COc1cc(/C=C\c2ccc(Cl)cc2)cc(OC)c1OC | 4800 | 6.74 | 6.77 | 7.30 | 8.00 | 7.10
12 | COc1cc(/C=C/c2ccc(Br)cc2)cc(OC)c1OC | – | 5.04 | 5.29 | 4.90 | 5.19 | 5.19

More lines, main results first:

Row | IC50 (Tubulin) [nM] | Compound | pEC50 (MCF7) | pEC50 (MLM) | pEC50 (HT-29) | pEC50 (SK-MEL-5) | pEC50 (A549)
13 | 29000 | COc1cc(CCc2ccc(N(C)C)cc2)cc(OC)c1OC | 7.19 | 6.92 | 7.11 | 7.23 | 7.08
14 | 3300 | COc1ccc(CCc2cc(OC)c(OC)c(OC)c2)cc1O | 6.48 | 8.00 | 7.09 | 8.68 | 8.00
15 | 7900 | COc1ccc(CCc2cc(OC)c(OC)c(OC)c2)cc1 | 9.80 | 9.74 | 9.60 | 9.85 | 9.74
16 | > 50000 | COc1ccc(CNc2cc(OC)c(OC)c(OC)c2)cc1 | 6.07 | < 4.60 | 5.65 | 5.95 | 6.08
17 | 23000 | COc1ccc(NCc2cc(OC)c(OC)c(OC)c2)cc1 | 8.62 | 8.80 | 9.00 | 9.15 | 8.72
